Columns and labels:
Assay type in all cases: in vivo
[1] = system: C57BL/6J mice subjected to ICH; assay: Forelimb placing test after ICH; settings: 1 mg/kg i.p. 45 minutes prior to ICH, then twice daily; 72 hours after ICH
Experimental: (§1) Animal Preparation and Intracerebral Infusion. Adult male C57BL/6J mice weighing 23-30 g were used. Mice were randomized to receive intraperitoneal injection of either C3aRA (1 mg/kg) (SB290157, Calbiochem, Darmstadt, Germany) diluted in PBS and DMSO (1.16% v/v), or an equal volume of vehicle (PBS and DMSO, 1.16% DMSO v/v) either 45 minutes prior to ICH induction or 6 and 12 hours after induction of ICH, followed in both cohorts by twice daily doses for 72 hours. […] Sham animals were given PBS and DMSO (1.16% v/v) in the same manner.
(§2) Mice were anesthetized with a single intraperitoneal dose of ketamine (90 mg/kg) and xylazine (5 mg/kg). […]
(§3) Neurofunction and behavioral testing. Sensorimotor function was evaluated by means of the 28-point neurological function score, corner test and forelimb placing tests, which were performed pre-operatively and at 6, 24, 48 and 72 hour post-injury. Navigational memory was evaluated with the means of a Morris water-maze (MWM) test pre-operatively and at 72 hours post ICH. […]
Forelimb placing test. […] Each animal was tested 10 times for each forelimb, and the percentage of trials in which the mouse placed the appropriate forelimb on the edge of the table after vibrissae stimulation was determined.

[2] = system: C57BL/6J mice subjected to ICH; assay: Histopathology, hematoma (lesion) volume after ICH; settings: 1 mg/kg i.p. 45 minutes prior to ICH, then twice daily; 72 hours after ICH; mean±SEM
Experimental: as §1
Mice were anesthetized with a single intraperitoneal dose of ketamine (90 mg/kg) and xylazine (5 mg/kg). Next, the mice were placed in a stereotactic frame (ASI Instruments, Inc., Warren, Mich., USA) and subjected to ICH using autologous blood infusion as previously described (Rynkowski M A et al, 2008, Nat Protoc 3: 122-128), Briefly, a 1-mm burr hole was drilled 2.3 mm lateral to the midline and 0.2 mm anterior to the bregma. Thirty μL of autologous whole blood were drawn from the tail artery into a capillary tube. […]
Histopathology and determination of lesion volume. […] Striatal lesion volume was determined by digitizing serial coronal sections ([…]) to span the entire hematoma. […] Volume of the lesion (mm^3) was then determined by summation of the lesion area in each coronal section and integrating over the section depth of 0.5 mm.

[3] = system: C57BL/6J mice subjected to ICH; assay: Morris water-maze test (MWM) after ICH; settings: then twice daily, 72 hours after ICH, mean±SEM
Experimental: as §1, §2, §3
Morris water-maze test (MWM). […] The time, in seconds, spent by each animal to find the platform was recorded. […] The time spent in the quadrant where the platform had been situated before was recorded. […]

[4] = system: model of focal ischemic stroke; assay: Dose-response trial in a model of focal ischemic stroke; settings: comparing 0.1, 0.5, 1 and 5 mg/kg

## NC(N)=NCCC[C@H](NC(=O)COCC(c1ccccc1)c1ccccc1)C(=O)O [C3aRA]
[1]
  forelimb placing capacity in the impaired limb: no significant deficits compared with sham animals
[2]
  mean hematoma volume: 12.17±1.33 mm^3
[3]; 1 mg/kg i.p. 45 minutes prior to ICH
  MWM time spent in the target quadrant: 19.62 ± 1.08 s
[3]; 1 mg/kg i.p. first at 6 h and 12 h after ICH
  MWM time spent in the target quadrant: 18.9 ± 1.3 s
[4]
  most effective dose: 1 mg/kg
